Holding throughout (format): cell-based
One assay deals with T1, human TLR9 (Homo sapiens, UniProt Q9NR96).
T1 sequence (Q9NR96 26-1032): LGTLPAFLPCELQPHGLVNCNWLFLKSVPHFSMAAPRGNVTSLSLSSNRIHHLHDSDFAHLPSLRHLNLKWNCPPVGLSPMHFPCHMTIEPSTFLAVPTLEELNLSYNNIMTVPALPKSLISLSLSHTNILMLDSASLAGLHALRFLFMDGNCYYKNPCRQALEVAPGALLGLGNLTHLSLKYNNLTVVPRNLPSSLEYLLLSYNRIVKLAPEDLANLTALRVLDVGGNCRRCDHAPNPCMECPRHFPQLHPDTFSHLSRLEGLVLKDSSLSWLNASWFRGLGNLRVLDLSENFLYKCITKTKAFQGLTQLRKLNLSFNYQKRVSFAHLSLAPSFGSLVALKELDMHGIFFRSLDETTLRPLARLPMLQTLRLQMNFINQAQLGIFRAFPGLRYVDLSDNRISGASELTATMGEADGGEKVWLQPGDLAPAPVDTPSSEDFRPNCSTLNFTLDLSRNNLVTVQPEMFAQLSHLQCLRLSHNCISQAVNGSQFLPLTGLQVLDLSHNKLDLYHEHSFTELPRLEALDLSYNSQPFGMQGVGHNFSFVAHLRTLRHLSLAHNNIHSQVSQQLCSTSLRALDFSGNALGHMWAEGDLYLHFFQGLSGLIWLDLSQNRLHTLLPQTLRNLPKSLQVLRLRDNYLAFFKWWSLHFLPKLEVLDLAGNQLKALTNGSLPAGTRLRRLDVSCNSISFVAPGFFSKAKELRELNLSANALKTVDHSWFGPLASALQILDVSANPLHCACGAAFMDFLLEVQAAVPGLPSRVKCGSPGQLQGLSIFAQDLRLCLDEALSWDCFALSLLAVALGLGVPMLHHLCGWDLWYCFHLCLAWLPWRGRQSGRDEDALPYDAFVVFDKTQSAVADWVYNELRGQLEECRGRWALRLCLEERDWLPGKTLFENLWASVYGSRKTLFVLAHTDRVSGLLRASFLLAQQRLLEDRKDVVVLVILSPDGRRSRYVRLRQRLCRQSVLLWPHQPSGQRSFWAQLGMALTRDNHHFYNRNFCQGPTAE
Briefly: TLR9 inhibition reporter assay (HEK-Blue cells, SEAP reporter). The note with it: HEK-Blue cells overexpressing human TLR9; stimulated with ODN2006 5 nM; 22 hour incubation; SEAP readout. In a few lines:
(§1)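 HEK-Blue cells with an NF-κB/AP-1-driven SEAP reporter were pre-treated 30 min at room temperature with compound (0.05 nM–50 μM), then stimulated with gardiquimod 7.5 μM (TLR7), R848 15.9 μM (TLR8) or ODN2006 5 nM (TLR9). After 22 h at 37 °C, SEAP was read; % inhibition was referenced to agonist+DMSO and known-inhibitor wells.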
A general note: Reporter assays use an easily measured gene product as a stand-in for the process of interest.

In another assay the target is T2, human TLR7 (Homo sapiens, UniProt Q9NYK1).
T2 sequence (Q9NYK1 27-1049): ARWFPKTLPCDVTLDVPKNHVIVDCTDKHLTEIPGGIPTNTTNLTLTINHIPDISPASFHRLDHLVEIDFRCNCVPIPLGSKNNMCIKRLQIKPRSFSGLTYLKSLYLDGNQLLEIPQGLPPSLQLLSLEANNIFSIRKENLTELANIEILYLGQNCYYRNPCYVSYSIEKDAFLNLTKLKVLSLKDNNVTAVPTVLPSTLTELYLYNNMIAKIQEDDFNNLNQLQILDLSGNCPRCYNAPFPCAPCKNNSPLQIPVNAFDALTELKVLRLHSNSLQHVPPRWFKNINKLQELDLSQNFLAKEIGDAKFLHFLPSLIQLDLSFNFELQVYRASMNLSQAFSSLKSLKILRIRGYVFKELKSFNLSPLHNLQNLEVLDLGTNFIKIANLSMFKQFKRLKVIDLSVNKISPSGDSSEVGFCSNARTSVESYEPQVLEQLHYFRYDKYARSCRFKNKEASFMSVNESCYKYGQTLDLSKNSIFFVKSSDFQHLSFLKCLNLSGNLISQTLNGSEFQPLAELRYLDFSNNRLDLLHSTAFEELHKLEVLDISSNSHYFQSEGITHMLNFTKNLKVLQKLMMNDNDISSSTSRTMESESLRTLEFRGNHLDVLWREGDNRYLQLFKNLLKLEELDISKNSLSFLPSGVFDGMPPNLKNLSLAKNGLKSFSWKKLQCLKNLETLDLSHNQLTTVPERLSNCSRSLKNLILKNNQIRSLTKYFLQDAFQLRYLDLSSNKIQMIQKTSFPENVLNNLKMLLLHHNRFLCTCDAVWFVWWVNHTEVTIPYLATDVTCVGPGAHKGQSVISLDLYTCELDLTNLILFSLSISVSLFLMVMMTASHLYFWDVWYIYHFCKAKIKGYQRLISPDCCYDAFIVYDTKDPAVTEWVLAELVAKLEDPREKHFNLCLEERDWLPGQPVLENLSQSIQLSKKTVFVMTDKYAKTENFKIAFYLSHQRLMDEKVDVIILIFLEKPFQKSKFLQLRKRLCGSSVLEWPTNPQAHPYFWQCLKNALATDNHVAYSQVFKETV
Briefly: TLR7 inhibition reporter assay (HEK-Blue cells, SEAP reporter). To be noted: HEK-Blue cells overexpressing human TLR7; stimulated with gardiquimod 7.5 μM; 22 hour incubation; SEAP readout. In a few lines:
as §1

Another assay addresses T3, human TLR8 (Homo sapiens, UniProt Q9NR97).
T3 sequence (Q9NR97 27-1041): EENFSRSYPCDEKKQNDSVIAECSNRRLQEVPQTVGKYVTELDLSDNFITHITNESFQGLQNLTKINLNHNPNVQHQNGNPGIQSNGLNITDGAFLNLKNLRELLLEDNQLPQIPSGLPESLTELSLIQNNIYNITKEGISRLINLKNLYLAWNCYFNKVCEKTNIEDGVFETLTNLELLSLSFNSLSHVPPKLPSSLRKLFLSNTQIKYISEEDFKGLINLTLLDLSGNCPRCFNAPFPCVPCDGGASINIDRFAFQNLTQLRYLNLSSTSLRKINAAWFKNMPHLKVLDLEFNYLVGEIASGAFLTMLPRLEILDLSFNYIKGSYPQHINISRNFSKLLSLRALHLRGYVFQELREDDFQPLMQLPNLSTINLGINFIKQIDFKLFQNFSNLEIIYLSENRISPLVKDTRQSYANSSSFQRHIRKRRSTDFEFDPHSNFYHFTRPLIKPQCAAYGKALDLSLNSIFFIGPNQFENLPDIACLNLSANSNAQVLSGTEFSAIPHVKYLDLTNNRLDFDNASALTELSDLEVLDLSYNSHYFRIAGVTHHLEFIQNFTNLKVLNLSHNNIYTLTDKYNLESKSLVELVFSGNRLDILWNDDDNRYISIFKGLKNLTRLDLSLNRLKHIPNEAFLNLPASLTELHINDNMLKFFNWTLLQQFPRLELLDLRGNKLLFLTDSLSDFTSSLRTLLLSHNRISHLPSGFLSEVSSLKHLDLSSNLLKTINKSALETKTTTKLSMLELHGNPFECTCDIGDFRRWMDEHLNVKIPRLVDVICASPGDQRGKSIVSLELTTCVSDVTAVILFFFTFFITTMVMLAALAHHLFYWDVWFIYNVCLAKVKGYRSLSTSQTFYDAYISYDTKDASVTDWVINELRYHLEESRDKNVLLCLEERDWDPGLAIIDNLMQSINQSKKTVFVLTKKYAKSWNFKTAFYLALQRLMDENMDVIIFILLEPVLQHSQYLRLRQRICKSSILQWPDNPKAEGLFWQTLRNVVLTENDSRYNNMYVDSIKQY
Put plainly: TLR8 inhibition reporter assay (HEK-Blue cells, SEAP reporter). The note with it: HEK-Blue cells overexpressing human TLR8; stimulated with R848 15.9 μM; 22 hour incubation; SEAP readout. In a few lines:
as §1

Consider `COc1ccc(-c2cn3c(n2)CCC(C2CCN(C4CC5(C4)CN(CC(C)C)C5)CC2)C3)cc1OC` (single isomer, unassigned) [Example 53, 2-(3,4-dimethoxyphenyl)-6-(1-(2-isobutyl-2-azaspiro[3.3]heptan-6-yl)piperidin-4-yl)-5,6,7,8-tetrahydroimidazo[1,2-a]pyridine], for which the IC50 is 22 nM against human TLR9, 2600 nM against human TLR7 and more than 50000 nM at human TLR8.
`COc1ccc(-c2nc3cc(C4CCN(C5CCN(C(C)C)CC5)CC4)ccn3n2)cc1OC` [Example 60, 2-(3,4-dimethoxyphenyl)-7-(1′-isopropyl-[1,4′-bipiperidin]-4-yl)-[1,2,4]triazolo[1,5-a]pyridine]: the figures for the IC50 at human TLR9, on human TLR7 and against human TLR8 were 1100 nM, 29000 nM and more than 50000 nM, respectively.
For the molecule `COc1ccc(-c2cn3c(n2)CCC(C2CCN(C4CCN(C(=O)C5CC5)CC4)CC2)C3)cc1OC` (single isomer, unassigned) [Example 44, cyclopropyl(4-(2-(3,4-dimethoxyphenyl)-5,6,7,8-tetrahydroimidazo[1,2-a]pyridin-6-yl)-[1,4′-bipiperidin]-1′-yl)methanone], the IC50 against human TLR9 is 314 nM; on human TLR7, 45000 nM; on human TLR8 it was more than 50000 nM.
For `COc1ccc(-c2cn3cc(-c4ccc(N5CCN(C(C)C)CC5)cc4)cc(C)c3n2)cc1OC` [Example 96, 2-(3,4-dimethoxyphenyl)-6-(4-(4-isopropylpiperazin-1-yl)phenyl)-8-methylimidazo[1,2-a]pyridine], the IC50 amounted to 232 nM against human TLR9, 2100 nM at human TLR7 and 15000 nM against human TLR8.
With `COc1ccc(-c2cn3c(n2)CC[C@H](C2CCN(C4CC5CCC(C4)N5C(C)C)CC2)C3)cc1OC` (single isomer, unassigned) [Example 135], the IC50 at human TLR9 is 42 nM; on human TLR7, 3900 nM; at human TLR8 it was more than 25000 nM.
As for `COc1ccc(-c2cn3cc(C4CCN(C5CC6CCC(C5)N6CC5CC5)CC4)cc(C)c3n2)cc1OC` (single isomer, unassigned) [Example 20, 6-(1-(8-(cyclopropylmethyl)-8-azabicyclo[3.2.1]octan-3-yl)piperidin-4-yl)-2-(3,4-dimethoxyphenyl)-8-methylimidazo[1,2-a]pyridine], the figures for the IC50 against human TLR9, against human TLR7 and against human TLR8 were 23 nM, 1500 nM and more than 50000 nM, respectively.
The matching figures for `COc1ccc(-c2cn3c(n2)CCC(C2CCN(C4CC5(C4)CN(C(C)C)C5)CC2)C3)cc1OC` (racemic) [Example 45, 2-(3,4-dimethoxyphenyl)-6-(1-(2-isopropyl-2-azaspiro[3.3]heptan-6-yl)piperidin-4-yl)-5,6,7,8-tetrahydroimidazo[1,2-a]pyridine]: 90 nM, 2100 nM and more than 50000 nM.
As for `CS(=O)(=O)c1ccc(-c2cn3c(n2)CC[C@H](C2CCN(C4CC5CCC(C4)N5CC4CC4)CC2)C3)cc1` (single isomer, unassigned) [Example 139], the IC50 was 33 nM against human TLR9, 10700 nM at human TLR7 and more than 50000 nM against human TLR8.
With `CS(=O)(=O)c1ccc(-c2cn3cc(C4CCN(C5CC6CCC(C5)N6CC5CC5)CC4)cc(F)c3n2)cc1` (single isomer, unassigned) [Example 115, 6-(1-(8-(cyclopropylmethyl)-8-azabicyclo[3.2.1]octan-3-yl)piperidin-4-yl)-8-fluoro-2-(4-(methylsulfonyl)phenyl)imidazo[1,2-a]pyridine], the IC50 against human TLR9 turned out to be 43 nM; at human TLR7, 1700 nM; against human TLR8, 49000 nM.
On to `COc1ccc(-c2cn3c(n2)CCC(C2CCN(C4CCN(CC(C)C)CC4)CC2)C3)cc1OC` (single isomer, unassigned) [Example 32, 2-(3,4-dimethoxyphenyl)-6-(1′-isobutyl-[1,4′-bipiperidin]-4-yl)-5,6,7,8-tetrahydroimidazo[1,2-a]pyridine], for which the IC50 is 38 nM against human TLR9, 2800 nM against human TLR7 and more than 50000 nM at human TLR8.
For `COc1ccc(-c2cn3c(n2)CCC(C2CCN(C4CC5(C4)CN(CC(C)C)C5)CC2)C3)cc1OC` (racemic) [Example 52, 2-(3,4-dimethoxyphenyl)-6-(1-(2-isobutyl-2-azaspiro[3.3]heptan-6-yl)piperidin-4-yl)-5,6,7,8-tetrahydroimidazo[1,2-a]pyridine], the IC50 against human TLR9 was 114 nM; on human TLR7, 18000 nM; at human TLR8, more than 50000 nM.
In the case of `COc1ccc(-c2cn3c(n2)CC(C2CCN(C4CCN(CC(C)C)CC4)CC2)CC3)cc1OC` (racemic) [Example 59, 2-(3,4-dimethoxyphenyl)-7-(1′-isobutyl-[1,4′-bipiperidin]-4-yl)-5,6,7,8-tetrahydroimidazo[1,2-a]pyridine], the IC50 was 205 nM at human TLR9, 7700 nM against human TLR7 and more than 50000 nM at human TLR8.

As usually defined, the IC50 is the point on the concentration scale where inhibition reaches its midpoint.

These data come from patent US12486267B2, “Imidazo[1,2-A]pyridine and [1,2,4]triazolo[1,5-A]pyridine derivatives as TLR9 inhibitors for the treatment of fibrosis” (BRISTOL-MYERS SQUIBB COMPANY, priority 2020, dated 2025).
